Converted amounts (≈) assume the structure as drawn.
Assays:
Nannizzia gypsea = experiment: Antifungal activity against Microsporum gypseum C115 after 48 hrs; assay type: functional
Trichophyton rubrum = experiment: Antifungal activity against Trichophyton rubrum C113 after 48 hrs; assay type: functional
Candida albicans = experiment: Antifungal activity against Candida albicans ATCC 10231 after 48 hrs; assay type: functional; details: ATCC 10231, 48 h
Aspergillus flavus = experiment: Antifungal activity against Aspergillus flavus ATCC 9170 after 48 hrs; assay type: functional; details: ATCC 9170, 48 h
Aspergillus niger = experiment: Antifungal activity against Aspergillus niger ATCC 9029 after 48 hrs; assay type: functional; details: ATCC 9029, 48 h
Cryptococcus neoformans = experiment: Antifungal activity against Cryptococcus neoformans ATCC 32264 after 48 hrs; assay type: functional; details: ATCC 32264, 48 h
Saccharomyces cerevisiae = experiment: Antifungal activity against Saccharomyces cerevisiae ATCC 9763 after 48 hrs; assay type: functional; details: ATCC 9763, 48 h
Aspergillus fumigatus = experiment: Antifungal activity against Aspergillus fumigatus ATCC 26934 after 48 hrs; assay type: functional; details: ATCC 26934, 48 h
Trichophyton benhamiae = experiment: Antifungal activity against Trichophyton mentagrophytes ATCC 9972 after 48 hrs; assay type: functional, Arthroderma benhamiae; details: ATCC 9972, 48 h

MIC (Nannizzia gypsea) [µg/mL] | MIC (Trichophyton rubrum) [µg/mL] | MIC (Candida albicans) [µg/mL] | MIC (Aspergillus flavus) [µg/mL] | MIC (Aspergillus niger) [µg/mL] | MIC (Cryptococcus neoformans) [µg/mL] | MIC (Saccharomyces cerevisiae) [µg/mL] | MIC (Aspergillus fumigatus) [µg/mL] | MIC (Trichophyton benhamiae) [µg/mL] | SMILES
62.5 (≈ 244 µM) | 62.5 (≈ 244 µM) | 250 (≈ 978 µM) | 125 (≈ 489 µM) | 250 (≈ 978 µM) | 15.6 (≈ 61 µM) | 250 (≈ 978 µM) | 125 (≈ 489 µM) | 62.5 (≈ 244 µM) | O=C1NC(=S)S/C1=C\c1ccc(Cl)cc1
3.9 (≈ 16.3 µM) | 3.9 (≈ 16.3 µM) | 250 (≈ 1040 µM) | > 250 | > 250 | 15.6 (≈ 65.2 µM) | 250 (≈ 1040 µM) | > 250 | 3.9 (≈ 16.3 µM) | O=C1NC(=S)S/C1=C\c1ccccc1F
> 250 | > 250 | > 250 | > 250 | > 250 | 62.5 (≈ 208 µM) | 250 (≈ 833 µM) | > 250 | > 250 | O=C1NC(=S)S/C1=C\c1ccc(Br)cc1

From ChEMBL document CHEMBL1144507, “Synthesis and antifungal activity of (Z)-5-arylidenerhodanines” (2007)
